Consider eleven compounds from ChEMBL document CHEMBL1201862, “PubChem BioAssay data set” (2004).

For assay [1], the target named is T1, Caspase-3 (Homo sapiens, UniProt P42574).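 Note: Dose-response selectivity test against caspase-3 for candidate inhibitors of sentrin-specific proteases (SENPs).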
T1 sequence (P42574 whole entry): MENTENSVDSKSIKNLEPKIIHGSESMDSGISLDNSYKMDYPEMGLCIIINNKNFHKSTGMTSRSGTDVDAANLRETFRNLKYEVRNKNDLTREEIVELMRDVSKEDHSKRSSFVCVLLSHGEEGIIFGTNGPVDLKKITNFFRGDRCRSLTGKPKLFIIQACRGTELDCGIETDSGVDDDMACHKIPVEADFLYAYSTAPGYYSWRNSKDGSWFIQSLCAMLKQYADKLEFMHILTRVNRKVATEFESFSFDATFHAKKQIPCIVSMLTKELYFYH
Format: functional.

The target in assay [2] is T2, Sentrin-specific protease 7 (Homo sapiens, UniProt Q9BQF6).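 Note: Luminescence-based dose-response confirmation of ultra-high-throughput screening hits, measuring inhibition of SENP7.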
T2 sequence (Q9BQF6 whole entry): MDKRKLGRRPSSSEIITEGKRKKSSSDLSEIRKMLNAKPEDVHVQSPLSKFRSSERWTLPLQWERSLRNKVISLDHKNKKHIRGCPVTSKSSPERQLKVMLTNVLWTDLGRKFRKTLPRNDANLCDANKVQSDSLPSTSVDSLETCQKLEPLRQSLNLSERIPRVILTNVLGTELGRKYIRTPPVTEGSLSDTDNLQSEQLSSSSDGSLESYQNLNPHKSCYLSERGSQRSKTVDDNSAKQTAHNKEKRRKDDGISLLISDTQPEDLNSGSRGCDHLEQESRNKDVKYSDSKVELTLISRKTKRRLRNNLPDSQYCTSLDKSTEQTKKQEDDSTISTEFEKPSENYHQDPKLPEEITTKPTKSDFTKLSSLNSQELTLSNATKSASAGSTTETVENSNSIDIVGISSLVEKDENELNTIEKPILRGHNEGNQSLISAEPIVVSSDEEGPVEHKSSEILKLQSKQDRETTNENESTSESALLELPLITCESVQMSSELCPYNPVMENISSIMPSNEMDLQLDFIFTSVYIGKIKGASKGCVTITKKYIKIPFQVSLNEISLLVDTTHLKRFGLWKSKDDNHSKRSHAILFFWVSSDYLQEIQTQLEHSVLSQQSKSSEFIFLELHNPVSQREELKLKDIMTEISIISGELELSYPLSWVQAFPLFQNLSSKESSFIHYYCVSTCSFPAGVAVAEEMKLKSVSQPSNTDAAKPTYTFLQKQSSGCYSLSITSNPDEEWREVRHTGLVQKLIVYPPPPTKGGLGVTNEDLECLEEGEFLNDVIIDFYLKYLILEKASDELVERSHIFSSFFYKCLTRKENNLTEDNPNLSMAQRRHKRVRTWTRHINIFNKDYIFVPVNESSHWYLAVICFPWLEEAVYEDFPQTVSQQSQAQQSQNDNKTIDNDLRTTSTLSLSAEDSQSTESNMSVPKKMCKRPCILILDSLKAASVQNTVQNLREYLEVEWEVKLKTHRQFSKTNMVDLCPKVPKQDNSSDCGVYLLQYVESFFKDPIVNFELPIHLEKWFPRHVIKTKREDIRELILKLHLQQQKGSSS
Format: functional.

In assay [3] the target is T3, Sentrin-specific protease 6 (Homo sapiens, UniProt Q9GZR1).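 Note: Luminescence-based dose-response confirmatory assay of SENP6 inhibition, following up an ultra-high-throughput screen.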
T3 sequence (Q9GZR1 whole entry): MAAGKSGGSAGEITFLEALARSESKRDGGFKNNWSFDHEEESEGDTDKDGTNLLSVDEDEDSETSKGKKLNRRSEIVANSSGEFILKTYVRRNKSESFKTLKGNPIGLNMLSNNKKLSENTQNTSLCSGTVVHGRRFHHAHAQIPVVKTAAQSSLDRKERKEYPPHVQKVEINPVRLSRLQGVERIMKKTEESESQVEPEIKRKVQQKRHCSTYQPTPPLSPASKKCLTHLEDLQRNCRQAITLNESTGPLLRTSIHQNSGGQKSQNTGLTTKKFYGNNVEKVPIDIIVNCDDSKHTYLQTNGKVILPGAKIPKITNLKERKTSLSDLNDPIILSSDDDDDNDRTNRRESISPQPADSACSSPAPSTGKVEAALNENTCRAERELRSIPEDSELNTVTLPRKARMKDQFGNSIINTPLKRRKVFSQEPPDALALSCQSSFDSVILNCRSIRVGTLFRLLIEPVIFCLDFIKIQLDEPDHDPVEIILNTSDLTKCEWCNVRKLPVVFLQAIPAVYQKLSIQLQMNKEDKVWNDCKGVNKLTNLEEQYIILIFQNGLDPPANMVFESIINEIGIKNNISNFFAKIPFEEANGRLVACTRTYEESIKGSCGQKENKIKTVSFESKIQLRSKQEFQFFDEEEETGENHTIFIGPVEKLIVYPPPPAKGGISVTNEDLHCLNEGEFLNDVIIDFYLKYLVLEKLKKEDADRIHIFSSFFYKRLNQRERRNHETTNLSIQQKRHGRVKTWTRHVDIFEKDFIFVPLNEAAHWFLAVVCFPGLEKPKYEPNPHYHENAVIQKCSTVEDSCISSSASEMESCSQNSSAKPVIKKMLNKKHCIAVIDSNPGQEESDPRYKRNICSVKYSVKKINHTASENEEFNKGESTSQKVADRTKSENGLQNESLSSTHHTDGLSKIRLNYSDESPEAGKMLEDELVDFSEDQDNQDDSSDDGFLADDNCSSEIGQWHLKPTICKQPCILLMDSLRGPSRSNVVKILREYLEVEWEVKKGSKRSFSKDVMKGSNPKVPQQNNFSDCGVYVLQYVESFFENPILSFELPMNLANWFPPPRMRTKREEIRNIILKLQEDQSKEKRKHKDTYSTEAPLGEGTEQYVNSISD
Format: functional.

For assay [4], the target named is T4, Sentrin-specific protease 8 (Homo sapiens, UniProt Q96LD8).
T4 sequence (Q96LD8 whole entry): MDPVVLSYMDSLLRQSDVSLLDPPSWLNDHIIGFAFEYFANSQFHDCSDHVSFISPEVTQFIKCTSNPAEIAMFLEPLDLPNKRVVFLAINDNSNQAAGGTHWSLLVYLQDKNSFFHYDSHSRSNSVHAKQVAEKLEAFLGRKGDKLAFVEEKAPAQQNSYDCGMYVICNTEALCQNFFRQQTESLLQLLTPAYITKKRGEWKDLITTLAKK
Format: functional.

For assay [5], the target named is T5, Estrogen receptor (Homo sapiens, UniProt P03372).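 Note: potency for inhibiting coactivator peptide recruitment to the receptor.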
T5 sequence (P03372 whole entry): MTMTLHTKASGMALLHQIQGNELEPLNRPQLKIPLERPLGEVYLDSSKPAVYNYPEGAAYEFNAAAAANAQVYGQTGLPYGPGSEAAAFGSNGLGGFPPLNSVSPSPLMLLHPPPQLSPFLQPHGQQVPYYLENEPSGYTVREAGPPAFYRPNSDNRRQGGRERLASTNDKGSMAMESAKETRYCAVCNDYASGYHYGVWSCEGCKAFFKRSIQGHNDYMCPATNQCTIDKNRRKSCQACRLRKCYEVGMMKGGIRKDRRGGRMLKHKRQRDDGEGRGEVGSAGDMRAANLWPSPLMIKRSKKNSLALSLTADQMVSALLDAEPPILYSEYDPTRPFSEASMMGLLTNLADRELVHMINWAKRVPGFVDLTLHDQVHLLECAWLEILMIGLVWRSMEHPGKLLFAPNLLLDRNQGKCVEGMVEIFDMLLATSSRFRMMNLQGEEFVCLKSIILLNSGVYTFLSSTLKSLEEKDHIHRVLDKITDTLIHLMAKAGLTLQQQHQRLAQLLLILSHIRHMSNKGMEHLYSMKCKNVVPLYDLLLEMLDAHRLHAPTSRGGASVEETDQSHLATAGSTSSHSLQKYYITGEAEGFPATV

Assay [6] has as its system Vero. The assay can be described thus: Vero cell cytotoxicity, cytotoxicity control for flavivirus capping enzyme inhibitors (AID 588742). The format is functional. To be noted: Chlorocebus sabaeus.
Assay [7] has as its target Genome polyprotein (dengue virus type 2, UniProt P29990). Nature of the assay: Dengue-2 NS5 methyltransferase inhibitors, primary screen, biochemical, confirmation dose response (AID 588689). The format is functional.
Assay [8] has as its target Ras and Rab interactor 1/Tyrosine-protein kinase ABL1 (Homo sapiens, UniProt P00519+Q13671). Format: functional.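 Note: biochemical TR-FRET dose-response test measuring inhibition of binding between Rin1 and Abl proteins.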
Assay [9] deals with Mu-type opioid receptor (Homo sapiens, UniProt P35372). The format is functional, cell-based.
The target of assay [10] is 5-hydroxytryptamine receptor 2A (Mus musculus, UniProt P35363). Format: functional, cell-based.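 Note: CHO-K1 cells with tagged receptor and beta-arrestin; agonist potency measured as compound-induced activation of the receptor.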
Assay [11] in a line: THP-1 cell cytotoxicity, dose response, cytotoxicity control for non-replicating M. tuberculosis project (AID 489025). Format: functional.
Assay [12] can be described thus: HepG2 cell cytotoxicity, dose response, cytotoxicity control for non-replicating M. tuberculosis project (AID 489018). The format is functional. The conditions noted are these: Mycobacterium tuberculosis.
The target of assay [13] is Nonstructural protein 1 (Influenza A virus, UniProt Q194T2). The format is functional, Influenza A virus (A/California/07/2009(H1N1)).
For assay [14], the target named is Heat shock protein HSP 90-alpha (Homo sapiens, UniProt P07900). Format: functional, organism-based.
Assay [15] deals with Vero. Nature of the assay: cells. Format: functional. To be noted: Chlorocebus sabaeus.
Assay [16] concerns the target T6, Protein Tat (Human immunodeficiency virus type 1 group M subtype B (isolate HXB2)(HIV-1), UniProt P04608).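 Note: tat binding to TAR RNA read out by fluorescence polarization.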
T6 sequence (P04608 whole entry): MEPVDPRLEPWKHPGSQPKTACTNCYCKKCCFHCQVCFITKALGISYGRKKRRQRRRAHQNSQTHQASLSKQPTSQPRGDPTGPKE
Format: functional.

A short description of assay [17]: THP-1 cell cytotoxicity, dose response, cytotoxicity control for Vif-APOBEC3G degradation inhibitor project, THP-1 cells (AID 1117359). Format: functional. The conditions noted are these: Human immunodeficiency virus 1, THP-1.
Assay [18] can be described thus: Shn3 3'UTR reporter inhibitors, dose response, cell-based, Clone20 osteoblasts, firefly luciferase, cherry-picked (AID 624132).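 Note: firefly luciferase luminescence from reporter carrying the Shn3 3'UTR in osteoblasts.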 Format: functional.
A short description of assay [19]: HepG2 cell cytotoxicity, dose response, cytotoxicity control for Shn3 inhibitor project, CellTiter-Glo, cherry-picked (AID 624134). Format: functional, cell-based.
A short description of assay [20]: control 3'UTR Renilla luciferase suppression, dose response, counter-screen for Shn3 inhibitor project, cell-based, Clone20-Shn3RL, cherry-picked (AID 624133). The format is functional.
Assay [21] addresses Paired box protein Pax-8 (Homo sapiens, UniProt Q06710). Nature of the assay: inhibitors of PAX8-driven TPO luciferase reporter, dose response, RMG-I cells, cherry-pick (AID 687027).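 Note: luciferase reporter driven by Pax8 target thyroperoxidase promoter measured by SteadyGlo luminescence.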 The format is functional, cell-based.
For assay [22], the target named is T4, Sentrin-specific protease 8. The format is functional. This is another data set of the same source.
For assay [23] the target is unchanged. Format: functional. This is another data set of the same source.
For assay [24], the target named is T7, DNA repair protein RAD52 homolog (Homo sapiens, UniProt P43351).
T7 sequence (P43351 whole entry): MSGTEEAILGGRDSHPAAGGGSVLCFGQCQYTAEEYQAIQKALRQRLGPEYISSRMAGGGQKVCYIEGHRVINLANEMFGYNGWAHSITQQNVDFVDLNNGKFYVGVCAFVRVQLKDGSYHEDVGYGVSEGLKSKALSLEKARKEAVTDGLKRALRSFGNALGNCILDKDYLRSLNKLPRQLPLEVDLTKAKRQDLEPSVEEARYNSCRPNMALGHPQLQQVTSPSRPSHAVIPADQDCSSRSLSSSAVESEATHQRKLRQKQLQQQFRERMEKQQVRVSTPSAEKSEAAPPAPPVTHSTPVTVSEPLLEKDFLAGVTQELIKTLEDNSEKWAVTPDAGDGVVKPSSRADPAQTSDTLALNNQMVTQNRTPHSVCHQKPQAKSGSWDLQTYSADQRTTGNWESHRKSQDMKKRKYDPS
The format is functional, biochemical.

Where a name gives a salt, the structure may show the parent alone. The source made the active and inactive calls.

Chain of Ras and Rab interactor 1/Tyrosine-protein kinase ABL1 (P00519 whole entry): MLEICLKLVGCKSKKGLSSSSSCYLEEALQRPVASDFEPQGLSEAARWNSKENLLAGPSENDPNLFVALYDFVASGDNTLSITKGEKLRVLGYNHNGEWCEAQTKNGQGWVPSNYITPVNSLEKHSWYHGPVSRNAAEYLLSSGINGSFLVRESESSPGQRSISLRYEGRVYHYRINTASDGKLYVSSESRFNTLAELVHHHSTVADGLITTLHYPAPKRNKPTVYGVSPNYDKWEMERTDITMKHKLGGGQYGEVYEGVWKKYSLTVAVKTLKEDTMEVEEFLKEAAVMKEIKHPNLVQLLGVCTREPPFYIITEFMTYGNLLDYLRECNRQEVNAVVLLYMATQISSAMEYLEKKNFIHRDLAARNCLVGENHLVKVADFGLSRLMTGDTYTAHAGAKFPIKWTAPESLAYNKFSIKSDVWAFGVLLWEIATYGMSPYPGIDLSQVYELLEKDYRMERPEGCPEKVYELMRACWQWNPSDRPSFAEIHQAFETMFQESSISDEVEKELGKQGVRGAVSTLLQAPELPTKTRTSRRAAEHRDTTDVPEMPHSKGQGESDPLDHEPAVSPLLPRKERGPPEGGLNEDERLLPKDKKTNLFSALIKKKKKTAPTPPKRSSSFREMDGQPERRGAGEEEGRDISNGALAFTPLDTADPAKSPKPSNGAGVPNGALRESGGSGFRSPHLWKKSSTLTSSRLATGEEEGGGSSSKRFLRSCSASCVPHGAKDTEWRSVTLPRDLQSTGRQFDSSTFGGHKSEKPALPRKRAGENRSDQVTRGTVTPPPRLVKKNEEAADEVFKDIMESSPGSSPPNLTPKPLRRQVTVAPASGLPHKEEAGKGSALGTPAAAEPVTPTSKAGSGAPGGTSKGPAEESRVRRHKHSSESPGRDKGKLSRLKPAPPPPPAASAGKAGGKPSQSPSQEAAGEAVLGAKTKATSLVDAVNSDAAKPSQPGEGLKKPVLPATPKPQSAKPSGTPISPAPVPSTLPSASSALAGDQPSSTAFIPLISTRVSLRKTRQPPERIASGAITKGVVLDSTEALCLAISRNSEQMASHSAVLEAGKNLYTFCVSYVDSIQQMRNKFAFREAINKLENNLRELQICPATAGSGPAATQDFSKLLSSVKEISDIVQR
Chain of Ras and Rab interactor 1/Tyrosine-protein kinase ABL1 (Q13671 whole entry): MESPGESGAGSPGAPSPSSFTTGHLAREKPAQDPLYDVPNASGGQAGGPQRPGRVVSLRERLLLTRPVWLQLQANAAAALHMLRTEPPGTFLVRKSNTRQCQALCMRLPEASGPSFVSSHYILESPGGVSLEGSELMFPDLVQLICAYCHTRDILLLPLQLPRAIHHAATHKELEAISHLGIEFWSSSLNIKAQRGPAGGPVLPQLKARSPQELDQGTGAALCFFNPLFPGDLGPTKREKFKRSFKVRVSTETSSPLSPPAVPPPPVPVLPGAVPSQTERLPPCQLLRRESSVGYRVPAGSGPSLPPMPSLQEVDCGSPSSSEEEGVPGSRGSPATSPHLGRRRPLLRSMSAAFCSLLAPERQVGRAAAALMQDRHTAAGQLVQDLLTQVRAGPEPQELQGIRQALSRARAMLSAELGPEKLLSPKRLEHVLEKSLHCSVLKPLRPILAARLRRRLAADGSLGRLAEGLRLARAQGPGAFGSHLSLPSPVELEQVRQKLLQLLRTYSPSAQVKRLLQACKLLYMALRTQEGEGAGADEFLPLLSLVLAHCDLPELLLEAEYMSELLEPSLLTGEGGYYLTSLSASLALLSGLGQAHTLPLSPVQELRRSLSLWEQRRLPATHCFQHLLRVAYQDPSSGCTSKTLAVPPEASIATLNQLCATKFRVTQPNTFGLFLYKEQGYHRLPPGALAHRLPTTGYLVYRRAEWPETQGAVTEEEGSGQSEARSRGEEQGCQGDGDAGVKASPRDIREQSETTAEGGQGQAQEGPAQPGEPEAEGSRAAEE
Chain of Mu-type opioid receptor (P35372 whole entry): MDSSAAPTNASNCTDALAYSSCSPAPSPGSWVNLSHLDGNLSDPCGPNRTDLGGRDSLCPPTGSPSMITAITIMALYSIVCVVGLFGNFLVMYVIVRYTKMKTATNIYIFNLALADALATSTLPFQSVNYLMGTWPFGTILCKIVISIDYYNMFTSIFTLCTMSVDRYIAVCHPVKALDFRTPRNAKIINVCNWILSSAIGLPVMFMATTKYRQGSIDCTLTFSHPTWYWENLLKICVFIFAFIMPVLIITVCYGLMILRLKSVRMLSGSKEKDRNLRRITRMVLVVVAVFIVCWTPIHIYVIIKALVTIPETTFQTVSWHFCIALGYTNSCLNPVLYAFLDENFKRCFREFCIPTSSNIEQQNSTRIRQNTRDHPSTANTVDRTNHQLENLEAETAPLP
Chain of 5-hydroxytryptamine receptor 2A (P35363 whole entry): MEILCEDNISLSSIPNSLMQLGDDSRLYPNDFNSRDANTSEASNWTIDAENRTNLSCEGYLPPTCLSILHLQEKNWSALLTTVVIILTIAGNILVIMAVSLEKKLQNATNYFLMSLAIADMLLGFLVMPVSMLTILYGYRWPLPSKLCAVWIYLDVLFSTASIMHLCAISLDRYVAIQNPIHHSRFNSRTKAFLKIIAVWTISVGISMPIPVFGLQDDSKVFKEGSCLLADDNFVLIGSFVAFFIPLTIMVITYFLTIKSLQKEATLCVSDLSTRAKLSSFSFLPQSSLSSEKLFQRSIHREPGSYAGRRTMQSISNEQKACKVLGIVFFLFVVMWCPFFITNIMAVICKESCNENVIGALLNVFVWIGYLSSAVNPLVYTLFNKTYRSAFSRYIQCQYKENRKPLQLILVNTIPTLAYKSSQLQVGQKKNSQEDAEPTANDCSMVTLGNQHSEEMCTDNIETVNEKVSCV
Chain of Genome polyprotein (P29990 2492-3391 limits assumed): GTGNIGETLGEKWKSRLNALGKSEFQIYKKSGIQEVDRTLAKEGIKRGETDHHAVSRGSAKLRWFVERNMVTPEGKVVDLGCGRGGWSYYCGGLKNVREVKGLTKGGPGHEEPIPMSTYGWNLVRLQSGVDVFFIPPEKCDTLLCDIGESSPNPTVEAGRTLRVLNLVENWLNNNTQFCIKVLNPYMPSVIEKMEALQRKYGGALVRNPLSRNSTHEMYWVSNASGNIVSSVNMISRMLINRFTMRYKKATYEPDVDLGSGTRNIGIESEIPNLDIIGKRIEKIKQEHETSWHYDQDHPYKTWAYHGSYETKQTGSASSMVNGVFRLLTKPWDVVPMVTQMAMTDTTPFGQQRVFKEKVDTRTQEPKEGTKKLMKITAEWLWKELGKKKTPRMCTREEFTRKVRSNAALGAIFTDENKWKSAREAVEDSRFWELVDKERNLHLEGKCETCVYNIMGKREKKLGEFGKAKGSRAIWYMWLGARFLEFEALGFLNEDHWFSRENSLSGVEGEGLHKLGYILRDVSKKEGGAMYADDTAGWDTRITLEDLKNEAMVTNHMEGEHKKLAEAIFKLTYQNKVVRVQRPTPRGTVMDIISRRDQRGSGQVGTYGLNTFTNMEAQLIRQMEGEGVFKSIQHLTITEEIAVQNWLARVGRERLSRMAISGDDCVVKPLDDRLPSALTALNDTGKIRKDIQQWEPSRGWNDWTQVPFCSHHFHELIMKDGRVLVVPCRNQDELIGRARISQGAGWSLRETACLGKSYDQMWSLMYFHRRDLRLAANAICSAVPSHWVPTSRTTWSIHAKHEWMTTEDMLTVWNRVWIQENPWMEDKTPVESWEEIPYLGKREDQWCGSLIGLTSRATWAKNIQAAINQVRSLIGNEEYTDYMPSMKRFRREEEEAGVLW
Chain of Nonstructural protein 1 (Q194T2 whole entry): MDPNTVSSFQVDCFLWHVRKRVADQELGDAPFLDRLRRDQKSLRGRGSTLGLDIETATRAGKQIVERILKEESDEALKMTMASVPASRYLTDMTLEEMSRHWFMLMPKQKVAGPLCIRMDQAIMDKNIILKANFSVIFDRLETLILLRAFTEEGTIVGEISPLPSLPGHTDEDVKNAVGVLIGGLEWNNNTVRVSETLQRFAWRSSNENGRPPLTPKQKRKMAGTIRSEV
Chain of Paired box protein Pax-8 (Q06710 whole entry): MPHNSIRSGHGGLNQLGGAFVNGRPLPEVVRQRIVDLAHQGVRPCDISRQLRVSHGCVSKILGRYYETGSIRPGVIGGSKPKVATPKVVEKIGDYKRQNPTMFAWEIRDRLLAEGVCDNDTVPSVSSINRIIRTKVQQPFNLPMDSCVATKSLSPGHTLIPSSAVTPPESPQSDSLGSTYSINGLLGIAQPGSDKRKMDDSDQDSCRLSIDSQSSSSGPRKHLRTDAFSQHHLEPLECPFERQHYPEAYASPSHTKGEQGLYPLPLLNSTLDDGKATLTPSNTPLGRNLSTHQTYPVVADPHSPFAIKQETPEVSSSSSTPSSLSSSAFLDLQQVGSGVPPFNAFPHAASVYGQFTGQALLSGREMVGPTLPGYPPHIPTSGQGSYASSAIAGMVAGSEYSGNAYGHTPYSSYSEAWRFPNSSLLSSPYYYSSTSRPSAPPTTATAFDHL

For `COc1ccc(C(N)=NOC(=O)Cc2cccs2)cc1`, the half-inhibitory concentration (IC50) in assay [1] was 32 µM (active); in assay [2] it was 11.3 µM (active); in assay [3], 37.2 µM (active); in assay [4] it was 6.43 µM (active).

Turning to `Cc1cc(C)c2nc(-c3ccccn3)cc(C(=O)NCc3ccco3)c2c1`, in assay [5], the IC50 is recorded as > 50 µM (not active). Also, in assay [6], the half-maximal cytotoxic concentration (CC50) was > 40 µM (active).

`Cc1nn(-c2cccc(Cl)c2)c2nc(-c3ccco3)cc(C(=O)O)c12`: the CC50 in assay [6] is > 40 µM (active). In addition, the concentration for half-maximal inhibition (IC50) in assay [7] was > 100 µM (active).

On to `COc1ccc(C(=O)COC(=O)c2n[nH]c3ccccc23)c(OC)c1`, for which the half-inhibitory concentration (IC50) was 33 µM (active) in [1], 8.72 µM (active) in assay [2], 29.9 µM (active) in [3] and 40.3 µM (active) in assay [4].

With `COc1cc2c(C(=O)N3CCN(c4cccc(Cl)c4)CC3)cn(C)c(=O)c2cc1OC`, the IC50 in assay [8] was 20.5 µM (inactive).

`Clc1ncc(CN2CCN(c3ccccc3)CC2)s1`: the EC50 in assay [9] is 92.5 µM (inactive); in [10] it was 0.815 µM (active).

Consider `CCSc1nsc(NC(=O)Nc2ccc(F)cc2F)n1`, for which the CC50 in assay [11] was 28.3 µM (active); in [12], > 20 µM (active). Further, the IC50 in [1] is 39.5 µM (active); in [2], 13.7 µM (active); in [3] it was > 100 µM (inactive); in assay [4], > 100 µM (inactive).

On to `O=[N+]([O-])c1cc2no[n+]([O-])c2cc1N1CCCCC1`, for which the half-maximal inhibitory concentration (IC50) in [13] was 31.7 µM (active); in [7], 6.38 µM (active); in assay [16], > 100 µM (active). Also, the concentration at half-maximal activity (AC50) in assay [14] is 1.62 µM (active). Besides, the CC50 in [6] is 27.6 µM (active); in assay [15], 24.7 µM (active); in [17], 36.9 µM (active).

As to `COc1cccc(C(c2nnnn2-c2ccc3c(c2)OCCO3)N2CCC(n3c(O)nc4ccccc43)CC2)c1OC` (centres undefined), the IC50 in assay [8] was > 73.4 µM (inactive). For the same compound, the AC50 in assay [18] is 3.74 µM (active); in assay [19], > 70 µM (inactive); in assay [20], 5.67 µM (active); in assay [21], 1.52 µM (active).

`Cc1cc(C)cc(/N=C/c2ccc([N+](=O)[O-])s2)c1`: the concentration at half-maximal activity (AC50) in assay [14] was 4.15 µM (active). The half-maximal inhibitory concentration (IC50) in assay [22] is 2.56 µM (active); in assay [23] it was 14.1 µM (active).

Regarding `C=CCN1CCc2nc(N)sc2CC1` [TALIPEXOLE HYDROCHLORIDE], the EC50 in assay [9] was 92.6 µM (inactive); in [10] it was 0.0137 µM (active). Besides, the AC50 in assay [24] is 6.04 µM (active).
